Tests used:
[1] = test system: SW48 colorectal tumor cell line; assay: 5Aza-dC dose optimisation: re-expression of silenced tumor suppressor genes on the expression array; assay type: cell-based; settings: 5 μM 5Aza-dC for at least two cell doubling times, with TSA (500 nM)
From the text: To determine the optimal 5Aza-dC dosage for robust detection of transcriptional reactivation on the microarray without excessive toxicity to the treated cells, the re-expression of 5 tumor suppressor genes, p16^INK4a, MLH1, MGMT, RARβ, and Timp-3, was examined at different doses of 5Aza-dC. The five TSG are well characterized as hypermethylated with associated silencing in the SW48 colorectal tumor cell line, which has a similar cell doubling time to the RCC lines (Wheeler et al. (1999) Proc. Natl. Acad. Sci., 96:10296-301; Esteller et al. (1999) Cancer Res., 59:793-97; Paz et al. (2003) Cancer Res., 63:1114-21; Herman et al. (1995) Cancer Res., 55:4525-30; Bachman et al. (1999) Cancer Res., 59:798-802). RNA was extracted from SW48 cell cultures after treatment with 1, 5, or 10 μM 5Aza-dC and TSA (500 nM). RT-PCR was then performed and the product labeled and hybridized to the expression array. […] The 5Aza-dC treatment was combined with TSA because there is good evidence that the processes of methylation and deacetylation interact to silence transcription, although TSA may have less synergistic effect at the relatively higher 5 μM 5Aza-dC dose employed than when combined with lower doses of 5Aza-dC (Cameron et al. (1999) Nat. Genet., 21:103-7; Wade et al. (2001) Oncogene, 20:3166-73). […]

[2] = test system: ACHN papillary renal tumor cell line; assay: Expression microarray of genes upregulated after 5Aza-dC and TSA treatment; assay type: cell-based, human; settings: 5 μM 5Aza-dC and 500 nM TSA, 14,802 gene microarray
Experimental: (§1) 5Aza-dC (Sigma, St. Louis, Mo.) was dissolved in phosphate buffered saline (PBS) as a 5 mM stock solution, and stored in aliquots at −80° C. TSA (Wako, Richmond, Va.) was dissolved in absolute ethanol as a 330 μM stock solution, and stored at −20° C. The 4 renal cell lines were split to low density and exposed to 5Aza-dC at a final concentration of 5 μM, again 24 hours after the beginning of treatment and, if necessary, further treatment until the cells had undergone at least 2 doublings. The cells were also treated with TSA at a final concentration of 500 nM during the 24 hours prior to harvest for RNA extraction. Untreated (mock) cells were cultured over an identical period of time with an equivalent volume of PBS and, for the final 24 hours, with an equivalent volume of EtOH.
(§2) Total RNA was isolated from drug-treated and untreated cultured cells using TRIZOL reagent (Invitrogen, Carlsbad, Calif.) and purified with the RNAeasy Mini Kit (Quiagen, Valencia, Calif.) combined with DNAase treatment. The RNA quality was confirmed by the ratio of 28S and 18S ribosomal RNA after agarose gel electrophoresis. Twenty μg of total RNA was reverse transcribed using oligo (dT)24 primer and Superscript II reverse transcriptase (Invitrogen, Carlsbad, Calif.) for 1.5 hours at 42° C.
(§3) For each cell line, both treated and untreated cDNA was labeled with Cy3 or Cy5 (Amersham Biosciences, Piscataway, N.J.) and then hybridized to separate human 15k oligoarrays (MWG-Biotech Inc, High Point, N.C.) according to the manufacturer's recommendation for 18 hours at 42° C. The microarrays were processed and spotted in the DNA Microarray Facility at FCCC. The Gene list, Gene ID and Template files can be viewed at research.fccc.edu/facilities/microarray. In addition, microarray hybridization was performed with the opposite labels (dye flip) from each cell line. The hybridized slides were scanned using a GMS 428 Scanner (Affymetrix, Santa Clara, Calif.) to generate high-resolution images for both Cy3 and Cy5 channels. Image analysis was performed using the ImaGene software (BioDiscovery, Inc, El Segundo, Calif.).
(§4) The genes corresponding to each oligonucleotide spotted on the array were identified using an optimized segmentation algorithm. […] Data were analyzed using the GeneSight software (BioDiscovery, Inc, El Segundo, Calif.) which includes background subtraction, data normalization (Lowess transformation), calculation of ratios, and statistical analysis of replicate spots and slides.
(§5) Up-regulation of the 14,802 gene microarray was analyzed in 4 RCC lines treated with 5 μM of 5Aza-dC and 500 nM of TSA. […] The promoter region of each gene was also analyzed for the presence of a CpG island with the characteristics described by Takai and Jones (Takai et al. (2002) Proc. Natl. Acad. Sci., 99:3740-5). […]

[3] = test system: HRC59 papillary renal tumor cell line; assay: as above; assay type: cell-based, human; settings: 5 μM 5Aza-dC and 500 nM TSA, 14,802 gene microarray
Experimental: as §1, §2, §3, §4, §5

[4] = test system: HRC51 clear cell renal tumor cell line; assay: as above; assay type: cell-based, human; settings: 5 μM 5Aza-dC and 500 nM TSA, 14,802 gene microarray
Experimental: as §1, §2, §3, §4, §5

[5] = test system: 786-0 clear cell renal tumor line; assay: as above; assay type: cell-based, human; settings: 5 μM 5Aza-dC and 500 nM TSA, 14,802 gene microarray
Experimental: as §1, §2, §3, §4, §5

With `Nc1ncn([C@H]2C[C@H](O)[C@@H](CO)O2)c(=O)n1` [5Aza-dC, 5Aza-2deoxycytidine] the “toxicity as assessed by comparison of cell morphology and cell death between control and treated cells” value [1] was “minimal toxicity”, the “re-expression of 5 tumor suppressor genes (p16INK4a, MLH1, MGMT, RARβ, Timp-3)” value ([1]; SW48 cells) was “re-expression of the 5 TSG” and the “genes upregulated at least 3-fold compared to the untreated cells” value (shortened to “genes upregulated at least 3-fold”) [2] was 111 genes. For the same molecule, the “genes upregulated at least 3-fold” value [3] was 178 genes, the “genes upregulated at least 3-fold” value [4] was 112 genes and the “genes upregulated at least 3-fold” value [5] was 170 genes.

— patent publication US20100028872A1, “Methods for the Detection of Cancer” (priority 2006, published 2010)
